Assay results taken from patent US20230416836A1, “METHOD FOR PREDICTING RESPONSIVENESS TO PLK1 INHIBITION” (National University of Singapore, priority 2020, published 2023).
Entries after “also recorded” stand apart in the source; their conditions may differ.

Tests used:
MCF10A ARID1A KO cells = test: cell survival screen with clinically applicable kinase inhibitors; type: cell-based; conditions: MCF10A system, ARID1A KO vs WT, ratios of Z-scores
From the text: FIG. 2: Generation of ARID1A KO cells in (A) GES1, (B) MCF10A, (C) OVCAR3, (D) Ratios of Z-scores, showing hits from preliminary FDA approved kinase inhibitor screen.
ARID1A Knockout (KO) cell lines were generated using CRISPR-Cas9 gene editing in multiple cellular contexts where ARID1A is lost-Gastric (GES1), Breast (MCF10A), and Ovarian (OVCAR3) (FIG. 2 A-C).

[1] = test system: GES1 ARID1A WT and KO cells; test: Cell titre blue assay in GES1 ARID1A WT and KO cells; type: cell-based; conditions: GES1 ARID1A WT vs KO
From the text: (§1) This synthetic lethal interaction was validated using Volasertib in multiple isogenic ARID1A WT and KO cell lines, using cell proliferation and colony formation assays (FIG. 3 A-E).

[2] = test system: MCF10A ARID1A WT and KO cells; test: Cell titre blue assay in MCF10A ARID1A WT and KO cells; type: cell-based; conditions: MCF10A ARID1A WT vs KO
From the text: as §1

[3] = test system: GES1 ARID1A-WT and KO cells; test: colony formation assay in GES1 ARID1A-WT and KO cells; type: cell-based; conditions: GES1 ARID1A-WT vs KO
From the text: as §1

[4] = test system: OVCAR3 ARID1A WT and KO cells; test: Cell proliferation assays in OVCAR3 cells; type: cell-based; conditions: OVCAR3 ARID1A WT vs KO
From the text: as §1

[5] = test system: OVCAR3-ARID1A KO xenografts; test: mouse xenograft experiments with OVCAR3-ARID1A WT or KO cells; type: in vivo; conditions: Nude (SCID) mice, 15 mg/kg body weight once per week for 4 weeks
Description: Nude (SCID) mice received sub-cutaneous injections of OVCAR3-ARID1A WT or KO cells. Tumors were visible 10 days post injection, after which the animals were treated with Volasertib (15 mg/kg body weight) or vehicle once per week for 4 weeks. Body mass and tumor volumes were recorded twice per week. Mice were sacrificed at the end of 4 weeks of treatment and tumors were isolated and imaged, (B) Body mass measurements of mice measured twice per week, (C) Tumor volume measurements of mice measured twice per week, p<0.05, student's t-test, (D) Images of OVCAR3-ARID1A WT/KO tumors isolated from mice after sacrifice, (E) Dot plot of tumor area from D showing changes in tumor area in OVCAR3-ARID1A KO vs OVCAR3-ARID1A KO+volasertib treatment. Tumor area was calculated from the images in image J using the ruler to set scale and applying free hand tool to measure the tumor area.
as §1

[6] = test system: GES1 ARID1A WT and KO cells; test: mitochondrial depolarization measured using JC-1; type: cell-based; conditions: post treatment
From the text: (§2) HSC70 was used as loading control.

[7] = test system: GES1 ARID1A-WT and KO cells; test: Annexin-V staining (apoptosis); type: cell-based
From the text: as §2

GES1 cells = test: Western blots of cleaved PARP in GES1 cells; type: cell-based; conditions: GES1 whole cell lysates, indicated time points
From the text: as §2

OVCAR3 cells = test: Western blots of cleaved PARP in OVCAR3 cells; type: cell-based; conditions: OVCAR3 whole cell lysates, indicated time points
From the text: as §2

[8] = test system: GES1-ARID1A isogenic cell lines; test: metabolomics by 1D NMR; type: cell-based; conditions: GES1-ARID1A WT and KO
From the text: (B) Heat map of important metabolites up/down regulated in GES1-ARID1A WT and KO with and without volasertib treatment, as measured by 1D NMR.
In addition, ARID1A loss causes a dramatic alteration in transcriptome leading to up or down regulation of many important biological pathways (FIG. 6).

cancer = conditions: Phase II clinical trials; cited from earlier work

Compound	sensitivity of cells with loss of ARID1A in cell survival screen (MCF10A ARID1A KO cells)	synthetic lethality, cell titre blue assay [1]	synthetic lethality, cell titre blue assay [2]	synthetic lethality, colony formation assay [3]	synthetic lethality, cell proliferation assays [4]	anti-tumor activity on xenografts (tumor volume, tumor area) [5]	anti-tumor activity on xenografts (tumor volume, tumor area) ([5]; 15 mg/kg)	mitochondrial depolarization (JC-1) [6]	apoptosis and cell killing ([7]; ARID1A KO cells)	apoptosis, Annexin-V positive cells ([7]; GES1 ARID1A-KO cells, post treatment)	cleaved PARP accumulation (GES1 cells)	cleaved PARP accumulation (OVCAR3 cells)	changes in metabolic intermediates / metabolomics [8]	clinical result as monotherapy (cancer)
COc1cc(C(=O)NC2CCN(C)CC2)c(F)cc1Nc1ncc2c(n1)N(C1CCCC1)CC(F)(F)C(=O)N2C [TAK960]	preferentially sensitivity	–	–	–	–	–	–	–	–	–	–	–	–	–
CC[C@@H]1C(=O)N(C)c2cnc(Nc3ccc(C(=O)N[C@H]4CC[C@H](N5CCN(CC6CC6)CC5)CC4)cc3OC)nc2N1C(C)C [Volasertib]	–	synthetic lethality between ARID1A loss and Volasertib	synthetic lethality between ARID1A loss and Volasertib	synthetic lethality between ARID1A loss and Volasertib	synthetic lethality between ARID1A loss and Volasertib	Anti-tumor activity	synthetically lethal relationship was also demonstrated	markedly increases mitochondrial depolarization; also recorded: increased depolarization post Volasertib treatment in a time dependent manner	selective cell killing in ARID1A KO cells	further increase post Volasertib treatment	increased accumulation of cleaved PARP	increased accumulation of cleaved PARP	profound changes in the metabolomics; also recorded: exacerbated upon volasertib treatment	encouraging results as monotherapy
